# Patent US20200276181A1, “THIENOISOQUINOLINES AND THEIR DERIVATIVES FOR TARGETING TUBULIN, CH-TOG, AURORA A KINASE, TPX2, CDK5RAP2 AND/OR ASPM” (VALORBEC, SEC, priority 2017, published 2020)
# Assays:
# A549 cells = assay: Viability IC50, high-throughput automated analysis (Table 4); type: cell-based; conditions: Homo sapiens, 3 population doubling times
# Procedure: (§1) FIG. 1A) is a line graph showing changes in the percentage of viable HFF-1, HeLa, A549 and HCT 116 cells after treatment with a range of C75 concentrations for 3 population doubling times (N=3). […] There were more rounded mitotic cells after C75 treatment in comparison to the control. FIG. 1C) is a line graph showing the percentage of HeLa and HFF1 cells in mitosis after treatment with various concentrations of C75 for 8 hours. The bars indicate standard deviation. FIG. 1D) is a series of images showing cells that were fixed and co-stained for tubulin (microtubules) and DAPI (DNA). Treatment of HeLa cells with 300 nM C75 caused the mitotic spindles to be disorganized, while they were not affected in HFF1 cells. […] The scale bar for the cells is 10 μm. […] FIG. 1F) is a cartoon schematic showing the key features of a metaphase cell.
# (§2) The images in FIG. 1B) show fields of view of HeLa cells treated with (dimethyl sulfoxide) DMSO or 500 nM of C75. […] Higher concentrations of C75 caused spindle phenotypes in HFF1 cells, but they were quite different in comparison to HeLa cells (FIG. 1D).
# HCT 116 cells = assay: as above; type: cell-based; conditions: Homo sapiens, 3 population doubling times
# Procedure: as §1, §2
# HFF-1 cells = assay: as above; type: cell-based; conditions: Homo sapiens, 3 population doubling times
# Procedure: as §1, §2
# HeLa cells [1] = assay: as above; type: cell-based; conditions: Homo sapiens, 3 population doubling times
# Procedure: as §1, §2
# [2] = test system: H1299 (non-small cell lung cancer) cells; assay: Mitotic arrest after one population doubling time; type: cell-based, human; conditions: H1299, least responsive
# Text: For each condition, 20,000 cells were counted per replicate (N=3). Line graphs (right) were made to better illustrate the relative changes in the cell cycle phases for the different treatments. Bars show standard deviation. The asterisks indicate the first statistically significant change in the G0/G1 and G2/M populations determined by a two-way ANOVA with a post-hoc Tukey's multiple comparisons test using 95% confidence intervals. FIG. 2B) is a line graph showing the percentage of HCT116 (p53−/−) cells, A549 cells, HeLa cells and H1299 cells in mitosis after treatment with various concentrations of C75 for one population doubling time. All of the cell lines show an increase in the proportion of mitotic cells after treatment with 200 nM C75. The bars indicate standard deviation. […]
# C75 was also tested for efficacy in different cancer cell lines. […] To further assess the role of C75 in disrupting spindles, HeLa cells were treated with 300 nM C75 for 4 hours and the spindle phenotypes were analyzed in more detail (FIG. 2E). […] To assess the affect of C75 on centrosomes, HeLa cells were treated with C75 or nocodazole (a drug that causes microtubule depolymerization as a control) for a short period of time (5 minutes), then the drugs were removed and the cells were analyzed for spindle phenotypes (schematic in FIG. 2G). […]
# HeLa cells [3] = assay: Spindle morphology, fixed cells stained for tubulin and DAPI; type: cell-based, human
# Procedure: as §1, §2
# [4] = test system: HCT116 cells with lower levels of endogenous MCAK (MCAK RNAi); assay: Spindle phenotypes with MCAK RNAi; type: cell-based; conditions: 300 nM C75
# Procedure: FIG. 9A) is a series of images of HCT116 cells with lower levels of endogenous MCAK (MCAK RNAi), stained for DAPI (DNA) and tubulin (microtubules), and treated with 300 nM C75 or control. FIG. 9B) is a bar graph showing the proportion of spindle phenotypes in HCT116 cells treated as in 9A). The multipolar spindle phenotypes caused by C75 are suppressed by MCAK RNAi.
# It was observed that the proportion of multipolar spindles caused by C75 are decreased after MCAK depletion.
# [5] = biological target: T1, GFP-tagged ch-TOG (CKAP5) (Homo sapiens, UniProt Q14008); assay: GFP-tagged ch-TOG localization; type: cell-based; conditions: mitotic HeLa cells vs non-treated
# T1 construct: expressed in transfected cells; host or cells: HeLa
# Procedure: As shown in FIG. 2L and FIG. 6, in HeLa cells expressing SiR-tubulin or GFP-tagged ch-TOG (CKAP5), which localizes to centrosomes, the addition of 100-300 nM of C75 causes the spindle poles to collapse together in metaphase cells within 1-2 minutes. The spindles recover, but become uneven or multipolar.
# ch-TOG contains multiple TOG domains that bind to tubulin dimers, and a microtubule-binding domain that binds to the microtubule lattice. If C75 were to bind and inhibit one or more of the TOG domains, this would shift its affinity onto microtubules, while inhibiting the microtubule domain would cause ch-TOG to become cytosolic.
# T1 sequence (Q14008 whole entry): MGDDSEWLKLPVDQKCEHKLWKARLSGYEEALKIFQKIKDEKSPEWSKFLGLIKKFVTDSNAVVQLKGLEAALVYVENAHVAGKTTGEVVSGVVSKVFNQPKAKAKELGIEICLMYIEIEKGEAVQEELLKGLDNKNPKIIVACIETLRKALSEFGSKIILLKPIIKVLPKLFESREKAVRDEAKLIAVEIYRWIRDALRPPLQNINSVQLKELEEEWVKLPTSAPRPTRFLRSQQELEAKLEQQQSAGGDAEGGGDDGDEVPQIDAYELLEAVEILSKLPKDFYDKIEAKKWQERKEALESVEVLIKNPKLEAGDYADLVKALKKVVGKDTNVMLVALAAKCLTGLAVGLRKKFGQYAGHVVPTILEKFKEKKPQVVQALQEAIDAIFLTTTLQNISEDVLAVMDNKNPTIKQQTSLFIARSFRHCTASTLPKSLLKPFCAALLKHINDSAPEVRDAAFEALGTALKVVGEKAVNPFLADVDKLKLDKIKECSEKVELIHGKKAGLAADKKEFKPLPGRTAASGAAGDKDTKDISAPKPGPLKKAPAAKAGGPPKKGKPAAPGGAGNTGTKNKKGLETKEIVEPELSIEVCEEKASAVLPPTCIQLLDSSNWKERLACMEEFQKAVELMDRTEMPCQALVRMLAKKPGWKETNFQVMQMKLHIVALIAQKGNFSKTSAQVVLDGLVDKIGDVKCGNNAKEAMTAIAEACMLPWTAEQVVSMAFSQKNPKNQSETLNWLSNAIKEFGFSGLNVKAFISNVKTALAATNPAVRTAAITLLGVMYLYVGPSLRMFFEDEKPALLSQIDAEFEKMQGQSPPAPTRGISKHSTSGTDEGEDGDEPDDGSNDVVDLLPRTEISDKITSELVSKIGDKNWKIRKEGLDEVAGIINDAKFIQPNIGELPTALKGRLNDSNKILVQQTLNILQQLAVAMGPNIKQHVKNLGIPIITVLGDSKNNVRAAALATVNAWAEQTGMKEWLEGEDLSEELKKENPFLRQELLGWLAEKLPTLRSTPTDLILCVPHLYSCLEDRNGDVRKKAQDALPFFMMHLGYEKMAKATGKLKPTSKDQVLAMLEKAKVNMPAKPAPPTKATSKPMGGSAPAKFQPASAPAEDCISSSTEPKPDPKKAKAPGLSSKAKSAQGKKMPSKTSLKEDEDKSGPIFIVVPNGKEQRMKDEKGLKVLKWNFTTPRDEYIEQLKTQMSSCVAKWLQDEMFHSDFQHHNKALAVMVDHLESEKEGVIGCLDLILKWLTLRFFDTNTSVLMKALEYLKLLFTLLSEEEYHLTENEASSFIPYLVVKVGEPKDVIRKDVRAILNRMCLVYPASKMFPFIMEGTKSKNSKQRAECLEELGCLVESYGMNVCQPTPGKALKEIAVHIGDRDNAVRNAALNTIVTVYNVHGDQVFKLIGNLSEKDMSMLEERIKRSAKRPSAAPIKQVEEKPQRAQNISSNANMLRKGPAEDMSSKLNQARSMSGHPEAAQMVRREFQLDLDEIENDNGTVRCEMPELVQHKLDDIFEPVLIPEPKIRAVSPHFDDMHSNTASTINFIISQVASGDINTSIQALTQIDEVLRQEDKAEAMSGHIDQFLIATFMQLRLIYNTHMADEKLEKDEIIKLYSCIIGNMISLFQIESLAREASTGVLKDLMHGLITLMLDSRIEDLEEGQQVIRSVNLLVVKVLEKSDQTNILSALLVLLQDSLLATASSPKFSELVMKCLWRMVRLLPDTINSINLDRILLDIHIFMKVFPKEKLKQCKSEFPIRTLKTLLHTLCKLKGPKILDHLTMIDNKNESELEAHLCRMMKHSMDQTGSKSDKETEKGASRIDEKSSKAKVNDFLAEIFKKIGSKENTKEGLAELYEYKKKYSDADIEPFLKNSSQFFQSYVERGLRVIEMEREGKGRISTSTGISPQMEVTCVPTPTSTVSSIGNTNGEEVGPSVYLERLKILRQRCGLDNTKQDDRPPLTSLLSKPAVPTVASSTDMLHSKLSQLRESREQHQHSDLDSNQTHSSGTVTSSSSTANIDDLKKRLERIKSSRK
smiles,measurement,setting,value
COc1ccc(S(=O)(=O)N2Cc3ccccc3-c3sc(Br)cc32)cc1 [Compound C75],IC50,A549 cells,0.377 µM
same,IC50,HCT 116 cells,0.431 µM
same,IC50,HFF-1 cells,0.789 µM
same,IC50,HeLa cells [1],0.427 µM
same,concentration at which mitotic cells show a small increase,[2],200 nM
same,mitotic spindle morphology,HeLa cells [3]; 300 nM,spindle organization was perturbed
same,mitotic spindle morphology,HeLa cells [3]; 750 nM,Centrosomes were fragmented or declustered and microtubules were completely absent
same,suppression of multipolar spindle phenotypes by MCAK RNAi,[4],suppressed
same,ch-TOG localization after treatment,[5],enriched at the centrosomes
